Results: patent US20030166648A1, “Felbamate derived compounds” (priority 2002, published 2003)

Columns and labels:
Assay type in all cases: in vivo
[1] = system: MES-induced seizure spread; experiment: Maximal electroshock seizure (MES) test, mice i.p.; conditions: for MES, number of animals protected/total number tested: mice i.p.
Excerpt: (§1) The fluoro derivatives synthesized were submitted to the National Institute of Neurological Disorders and Stroke (NINDS) for evaluation in a standard panel of assays. Two convulsant tests (MES and scMET), and a toxicity screen (rotorod in mice, positional sense and gait in rats) were employed for evaluating the compounds activity as neuroprotecting agents. These testing procedures are described in detail in Molecular and Cellular Targets for Anti-epileptic Drugs, eds. G. Avanzini, G. Regesta, P. Tanganelli, M. Avoli, 1997, John Libbey & Company Ltd, pp 191-198. The felbamate derivatives were evaluated for anticonvulsant activity following intraperitoneal (i.p.) administration in mice and oral administration in rats.
(§2) The Maximal Electroshock Seizure (MES)
(§3) The MES test is a model for generalized tonic-clonic seizures and is used to identify compounds which prevent seizure spread. The behavioral and electrographic seizures generated in this model are consistent with the human disorder. In the MES test, an electrical stimulus of 0.2 s in duration (50 mA in mice and 150 mA in rat at 60 Hz) was delivered via corneal electrodes primed with an electrolyte solution containing an anesthetic agent. Mice were tested at 30 minutes and 4 hours following doses of 30, 100 and 300 mg/kg of test compound. Rats were tested at time intervals between 0.25 and 4 hours following a standard oral dose of 30 mg/kg. Abolition of the hindlimb tonic extensor component indicates the test compound's ability to inhibit MES-induced seizure spread.
(§4) For the MES and scMET tests the data is presented in the form of the number of animals protected by the administered compound/total number of animals tested. […] Qualitative data was obtained for fluoro felbamate 12 (Tables 1 and 2A), fluoro monocarbamate felbamate 13 (Tables 1 and 2B), and fluorodioxo 16 (Tables 1 and 2C) and for cyclic felbamate 21 (Tables 5 and 6B) and cyclic monocarbamate 22 (Tables 5 and 6A). More extensive quantitative data was also obtained for fluoro felbamate 12 in mice (Table 3) and rats (Table 4).

[2] = Minimal neurotoxicity (TOX), positional sense and gait and stance tests, rats p.o.; conditions: rat p.o., 30 mg/kg
Excerpt: as §1, with “G. Avanzini, G. Regesta, P. Tanganelli, M. Avoli, 1997, John Libbey & Company Ltd, pp 191-198.” left out
Rats are examined for behavioral toxicity by the positional sense test and a gait and stance test. […] In the gait and stance test, neurotoxicity is indicated by a circular or zigzag gait, ataxia, abnormal spread of the legs, abnormal posture, tremor hyperactivity, lack of exploratory behavior, somnolence, stupor or catalepsy. […]

[3] = Minimal neurotoxicity (TOX), rotorod test, mice i.p.; conditions: mice i.p.
Excerpt: as §1, with “G. Avanzini, G. Regesta, P. Tanganelli, M. Avoli, 1997, John Libbey & Company Ltd, pp 191-198.” left out, “rats. […]” for “rats.”

[4] = system: MES-induced seizure spread; experiment: Maximal electroshock seizure (MES) test, rats p.o.; conditions: for anti-seizure activity in rats (in words): rat models; for MES, number of animals protected/total number tested: rat p.o., 30 mg/kg
Excerpt: as §1, §2, §3, §4

[5] = system: pentylenetetrazol-induced clonic seizures; experiment: Subcutaneous Metrazol seizure test (scMET), mice i.p.
Excerpt: as §1
The Subcutaneous (Metrazol) Seizure Test (scMET)
This is a model that primarily identifies compounds that raise seizure threshold. With some minor exceptions, the pharmacological profile of the scMET seizure model is consistent with the human condition. The scMET test utilizes a dose of pentylenetetrazol (85 mg/kg in Carworth Farms No. 1 mice and 70 mg/kg in Sprague-Dawley rats) that induces clonic seizures lasting for a period of at least five seconds in 97% (CD97) of animals tested. At the anticipated time of testing the convulsant is administered subcutaneously. The test compound is administered intraperitoneally in mice and orally in rats. Animals are observed over a 30 minute period. Absence of clonic spasms in the observed time period indicates a compound's ability to abolish the effect of pentylenetetrazol on seizure threshold.
as §4

seizures = experiment: NINDS anticonvulsant panel (MES, scMET), overall statements; conditions: overall statement
Excerpt: as §1, §4

Row | SMILES | TOX, number of animals exhibiting toxic effects/total number tested ([2]; 0.25 h) | TOX, number of animals exhibiting toxic effects/total number tested ([2]; 0.5 h) | TOX, number of animals exhibiting toxic effects/total number tested ([2]; 1.0 h) | TOX, number of animals exhibiting toxic effects/total number tested ([2]; 2.0 h) | TOX, number of animals exhibiting toxic effects/total number tested ([2]; 4.0 h) | TOX, number of animals exhibiting toxic effects/total number tested ([3]; 30 mg/kg, 0.5 h) | TOX, number of animals exhibiting toxic effects/total number tested ([3]; 30 mg/kg, 4.0 h) | TOX, number of animals exhibiting toxic effects/total number tested ([3]; 100 mg/kg, 0.5 h) | TOX, number of animals exhibiting toxic effects/total number tested ([3]; 100 mg/kg, 4.0 h) | TOX, number of animals exhibiting toxic effects/total number tested ([3]; 300 mg/kg, 0.5 h) | TOX, number of animals exhibiting toxic effects/total number tested ([3]; 300 mg/kg, 4.0 h) | anti-seizure activity in rats (in words) [4] | further results
1 | NC(=O)OCC1(c2ccccc2)COC(=O)N1 (stereo not shown) [cyclic felbamate] | 0/4 | 0/4 | 0/4 | 0/4 | 0/4 | 0/4 | 0/2 | 0/8 | 0/4 | 0/4 | 0/2 | potent activity | MES, number of animals protected/total number tested ([1]; 30 mg/kg, 0.5 h): 0/1; MES, number of animals protected/total number tested ([1]; 30 mg/kg, 4.0 h): 0/1; MES, number of animals protected/total number tested ([1]; 100 mg/kg, 0.5 h): 0/3; MES, number of animals protected/total number tested ([1]; 100 mg/kg, 4.0 h): 0/3; MES, number of animals protected/total number tested ([1]; 300 mg/kg, 0.5 h): 0/1; MES, number of animals protected/total number tested ([1]; 300 mg/kg, 4.0 h): 0/1; MES, number of animals protected/total number tested ([4]; 0.25 h): 2/4; MES, number of animals protected/total number tested ([4]; 0.5 h): 2/4; MES, number of animals protected/total number tested ([4]; 1.0 h): 3/4; MES, number of animals protected/total number tested ([4]; 2.0 h): 0/4; MES, number of animals protected/total number tested ([4]; 4.0 h): 3/4; ScMET, number of animals protected/total number tested ([5]; 30 mg/kg, 0.5 h): 0/1; ScMET, number of animals protected/total number tested ([5]; 30 mg/kg, 4.0 h): 0/1; ScMET, number of animals protected/total number tested ([5]; 100 mg/kg, 0.5 h): 0/1; ScMET, number of animals protected/total number tested ([5]; 100 mg/kg, 4.0 h): 0/1; ScMET, number of animals protected/total number tested ([5]; 300 mg/kg, 0.5 h): 0/1; ScMET, number of animals protected/total number tested ([5]; 300 mg/kg, 4.0 h): 0/1
2 | O=C1NC(=O)C(F)(c2ccccc2)CO1 (stereo not shown) [fluoro dioxo, 5-Fluoro-5-phenyl-1,3-oxazinane2,4-dione] | 0/4 | 0/4 | 0/4 | 0/4 | 0/4 | 0/4 | 0/2 | 0/8 | 0/4 | 1/4 | 0/2 | strong anti-seizure activity | anti-seizure activity in mice (in words) ([1]; mice, MES and scMET (Table 1)): inactive
3 | NC(=O)OCC(F)(CO)c1ccccc1 (stereo not shown) [fluoro monocarbamate felbamate, 2-Fluoro-2-phenyl-1,3-propanediol monocarbamate] | 0/4 | 0/4 | 0/4 | 0/4 | 0/4 | 0/4 | 0/2 | 3/8 | 0/4 | 2/4 | 0/2 | – | MES protection (in words) ([1]; mice, 100 mg/kg): moderate MES protection; anti-seizure activity (in words) (seizures): show anti-seizure activity
